According to patent publication US20080293583A1, “Methods for diagnosing mood disorders” (Wyeth, priority 2003, published 2008):

Columns and labels:
Assay type in all cases: in vivo
[1] = system: PCTAIRE-3 (Serine/Threonine-Protein Kinase); test: 2-DE proteome analysis of rat hippocampus: PCTAIRE-3; settings: rat hippocampus cytosolic extract, 10 mg/kg i.p. daily 14 days, vs control; gel spot 6
Description: (§1) Animal dosing. Adult male Sprague Dawley rats weighing 230-320 g were housed with ad libitum access to food and water. After 1 week of habituation, rats were administered either an antidepressant or vehicle alone. The following drugs were administered intraperitoneally (i.p.): fluoxetine (10 mg/kg daily), venlafaxine (10 mg/kg daily) or vehicle alone (1 ml/kg normal saline daily) for 14 days (n=3 rats per group).
(§2) Sample preparation and cytosolic protein extraction. The animals were euthanized and hippocampi were rapidly dissected from the whole brain. Samples from each treatment group were pooled and stored at −85° C. Cytosolic extracts were prepared using the universal extraction kit from Sigma (prot-two) as follows: soluble cytoplasmic extraction reagent (S2688) was added to the hippocampal tissue (10 ml/250 mg wet weight). […]
(§3) Two-dimensional gel electrophoresis. […] Molecular masses were determined by running standard protein markers (Genomic Solutions Inc.), covering the range 10-200 kDa as well as internal verification via landmark proteins within the gel. […]
(§4) Protein fixation, silver staining and 2-D gel comparisons. […] Protein spots were outlined (first automatically and then manually) and quantified using the HT analyzer v2.2 software (Genomic Solutions Inc.). The software calculated the relative spot volume of the proteins compared with the total amount of protein in the gel. […]

[2] = system: Glutathione S-Transferase Yb3; test: 2-DE proteome analysis of rat hippocampus: Glutathione S-Transferase Yb3; settings: rat hippocampus cytosolic extract, 10 mg/kg i.p. daily 14 days, vs control; gel spot 56
Description: as §1, §2, §3, §4

[3] = system: GLIA maturation factor beta (GMF-β); test: 2-DE proteome analysis of rat hippocampus: GMF-β; settings: rat hippocampus cytosolic extract, 10 mg/kg i.p. daily 14 days, vs control; gel spot 67
Description: as §1, §2, §3, §4

[4] = system: Proteasome subunit alpha type 2 (Multicatalytic endopeptidase complex subunit C3); test: 2-DE proteome analysis of rat hippocampus: Proteasome subunit alpha type 2; settings: rat hippocampus cytosolic extract, 10 mg/kg i.p. daily 14 days, vs control
Description: as §1
(§5) Sample preparation and cytosolic protein extraction. The animals were euthanized and hippocampi were rapidly dissected from the whole brain. Samples from each treatment group were pooled and stored at −85° C. Cytosolic extracts were prepared using the universal extraction kit from Sigma (prot-two) as follows: soluble cytoplasmic extraction reagent (S2688) was added to the hippocampal tissue (10 ml/250 mg wet weight). Samples were sonicated (4 times at 30 seconds) and centrifuged for 45 minutes (14,000 g) at 4° C. The supernatant was decanted and stored on ice. Ten milliliters of the soluble cytoplasmic extraction reagent was added to the remaining pellet and the sonication and centrifugation steps were repeated. The supernatant was decanted, combined with the previous supernatant and SpeedVac (Savant Instruments, Halbrook, N.Y.) dried. Each sample was dissolved in 2 ml of 2-D lysis buffer (6 M urea, 2 M thiourea, 4% CHAPS, 40 mM Tris, 65 mM dithiothreitol (DTT), 1 mM sodium vanadate, 1 mM sodium fluoride, protease inhibitor tablet (#1836145, Roche)), concentrated and desalted (Centricon tube; 6500 rpm) at 10° C. for 12 hours.
Two-dimensional gel electrophoresis. First dimensional isoelectric focusing (IEF) was performed on 18 cm IPG strips (pH 4-7) using an IPGphor unit (Amersham Pharmacia). Each strip was rehydrated for 16 hours with sample lysate (˜500 ug) in a final volume of 400 uL of IEF solution (10 uL of bromophenol blue (0.25% w/v); 2 uL of Ampholyte (pH 4-7, Amersham #17-6000-86); 2-D lysis buffer). […] The strips were then subjected to a two-step equilibration (50 mM Tris; 2% SDS; 30% glycerol) in (A) 0.5% DTT (Bio-Rad) and (B) 4.5% iodoacetamide (Sigma) buffers before proceeding to SDS-PAGE. […] Molecular masses were determined by running standard protein markers (Genomic Solutions Inc.), covering the range 10-200 kDa as well as internal verification via landmark proteins within the gel. […]
as §4

[5] = system: 10 KD heat shock protein, mitochondrial (Hsp10); test: 2-DE proteome analysis of rat hippocampus: Hsp10; settings: rat hippocampus cytosolic extract, 10 mg/kg i.p. daily 14 days, vs control; gel spot 83
Description: as §1, §2, §3, §4

Alpha-enolase = test: 2-DE proteome analysis of rat hippocampus: Alpha-enolase; settings: rat hippocampus cytosolic extract, 10 mg/kg i.p. daily 14 days, vs control; for Fold change, Alpha-enolase (spot 8): gel spot 8; for Fold change, Alpha-enolase (spot 9): gel spot 9; for Fold change, Alpha-enolase (spot 10): gel spot 10
Description: as §1, §5
Two-dimensional gel electrophoresis. First dimensional isoelectric focusing (IEF) was performed on 18 cm IPG strips (pH 4-7) using an IPGphor unit (Amersham Pharmacia). Each strip was rehydrated for 16 hours with sample lysate (˜500 ug) in a final volume of 400 uL of IEF solution (10 uL of bromophenol blue (0.25% w/v); 2 uL of Ampholyte (pH 4-7, Amersham #17-6000-86); 2-D lysis buffer). […] The strips were then subjected to a two-step equilibration (50 mM Tris; 2% SDS; 30% glycerol) in (A) 0.5% DTT (Bio-Rad) and (B) 4.5% iodoacetamide (Sigma) buffers before proceeding to SDS-PAGE. Separation in the second dimension was performed on 10% SDS polyacrylamide gels (180×1.5 mm) at a constant voltage of 500 V at 15° C. for 28 hours using an Investigator 2D electrophoresis unit (Genomic Solutions Inc., MA) which accommodated 10 gels. Molecular masses were determined by running standard protein markers (Genomic Solutions Inc.), covering the range 10-200 kDa as well as internal verification via landmark proteins within the gel. The pl values were used as given by the supplier of the immobilized pH-gradient strips.
Protein fixation, silver staining and 2-D gel comparisons. Silver staining of the gels was performed using a silver stain kit (gs#80-0183; Genomic Solutions). All steps were performed at room temperature, gently agitating the trays on a rotary shaker at low speed. Stained gels were scanned using an 8-bit ccd camera and the Investigator G3 ProPic system (Genomic Solutions Inc.). Protein spots were outlined (first automatically and then manually) and quantified using the HT analyzer v2.2 software (Genomic Solutions Inc.). The software calculated the relative spot volume of the proteins compared with the total amount of protein in the gel. The HT analyzer software was used to cross-match (‘synchronize’) and identify protein spots between control gels and drug treatment gels that were different in integrated intensity by at least a factor of 1.5 versus control. […] This population of spots were automatically picked from each gel with the ProPic system for in-gel trypsin digestion.
Enzymatic digestion of protein spots. Silver-stained protein spots were automatically excised and transferred to a 96-well polypropylene microtiter plate. Each excised spot was de-stained to remove the silver ions and enhance sensitivity with 30 mM potassium ferricyanide and 100 mM sodium thiosulfate (1:1 ratio). […]

[6] = system: Hippocampal Cholinergic Neurostimulating peptide (PEBP; HCNP; Raf kinase inhibitor protein); test: 2-DE proteome analysis of rat hippocampus: HCNP; settings: rat hippocampus cytosolic extract, 10 mg/kg i.p. daily 14 days, vs control; gel spot 60
Description: as §1, §2, §3, §4

[7] = system: Dihydropyrimidinase Related Protein-2 (DRP-2; CRMP-2; TOAD-64); test: 2-DE proteome analysis of rat hippocampus: DRP-2/CRMP-2; settings: rat hippocampus cytosolic extract, 10 mg/kg i.p. daily 14 days, vs control; gel spot 1
Description: as §1, §2, §3, §4

[8] = system: Fatty Acid-Binding Protein, Heart (H-FABP); test: 2-DE proteome analysis of rat hippocampus: H-FABP; settings: rat hippocampus cytosolic extract, 10 mg/kg i.p. daily 14 days, vs control; gel spot 89
Description: as §1, §2, §3, §4

Row | SMILES | Fold change, PCTAIRE-3 [1] [Fold change] | Fold change, Glutathione S-Transferase Yb3 [2] [Fold change] | Fold change, GLIA maturation factor beta (GMF-β) [3] [Fold change] | Fold change, Proteasome subunit alpha type 2 ([4]; gel spot 27) [Fold change] | Fold change, Proteasome subunit alpha type 2 ([4]; gel spot 27, listed as fluoxetine) [Fold change] | Fold change, 10 KD heat shock protein, mitochondrial (Hsp10) [5] [Fold change] | Fold change, Alpha-enolase (spot 8) (Alpha-enolase) [Fold change] | Fold change, Alpha-enolase (spot 9) (Alpha-enolase) [Fold change] | Fold change, Alpha-enolase (spot 10) (Alpha-enolase) [Fold change] | Fold change, Hippocampal Cholinergic Neurostimulating peptide (PEBP; HCNP) [6] [Fold change] | Fold change, Dihydropyrimidinase Related Protein-2 (DRP-2; CRMP-2; TOAD-64) [7] [Fold change] | Fold change, Fatty Acid-Binding Protein, Heart (H-FABP) [8] [Fold change] | Fold change, Proteasome subunit alpha type 2 ([4]; gel spot 27, listed as venlafaxine) [Fold change]
1 | CNCCC(Oc1ccc(C(F)(F)F)cc1)c1ccccc1 (stereo not drawn) [Fluoxetine, fluoxetine] | 1.5 | 0.5 | 3 | 6.1 | 6 | 2.3 | 3.4 | 5 | 3 | 1.9 | 2.6 | 1.6 | –
2 | COc1ccc(C(CN(C)C)C2(O)CCCCC2)cc1 (stereo not drawn) [Venlafaxine, venlafaxine] | 1.5 | 0.5 | 2.7 | 10.6 | – | 3.8 | 2 | 4.8 | 4.1 | 2 | 4.1 | 2.1 | 10
